Experimental findings from patent publication US10744136B2, “Sulfonamide derivatives as JAK inhibitors” (Avista Pharma Solutions, Inc., priority 2018, dated 2020) are described below.

The target in this experiment is T1, JAK1 (Homo sapiens, UniProt P23458).
T1 construct: purchased Thermo Fisher Scientific
Kind of experiment: Z'-LYTE JAK1 kinase screen (Thermo Fisher Scientific). It is filed as biochemical. The following applies: 1% DMSO, ATP at Km apparent; for inhibition at 0.01 µM: test compound 10 nM; for inhibition at 0.1 µM: test compound 100 nM; for % Inhibition 1000 nm: test compound 1000 nm (so in the source). As for the experimental part:
The example compounds were screened for Jak1 activity at Thermo Fisher Scientific, using their Z′-Lyte™ protocol, as described below. Selectivity screening against other kinases can be performed following similar procedures. Z′-LYTE Assay Conditions: The Test Compounds are screened in 1% DMSO (final) in the well. Three screening concentrations (10, 100, and 1000 nM) of test compounds were used. Peptide/Kinase Mixtures: All Peptide/Kinase Mixtures are diluted to a 2× working concentration in the appropriate Kinase Buffer (For JAK1, the 2×JAK1/Tyr 06 mixture is prepared in 50 mM HEPES pH 6.5, 0.01% BRIJ-35, 10 mM MgCl2, 1 mM EGTA, 0.02% NaN3. The final 10 μL Kinase Reaction consists of 21.2-91.5 ng JAK1 and 2 μM Tyr 06 in 50 mM HEPES pH 7.0, 0.01% BRIJ-35, 10 mM MgCl2, 1 mM EGTA, 0.01% NaN3. After the 1 hour Kinase Reaction incubation, 5 μL of a 1:128 dilution of Development Reagent A is added). ATP Solution: All ATP Solutions are diluted to a 4× working concentration in Kinase Buffer (50 mM HEPES pH 7.5, 0.01% BRIJ-35, 10 mM MgCl2, 1 mM EGTA). ATP: Km apparent is previously determined using a Z′-LYTE assay. 10× Novel PKC Lipid Mix: 2 mg/ml Phosphatidyl Serine, 0.2 mg/ml DAG in 20 mM HEPES, pH 7.4, 0.3% CHAPS. For 5 mL 10× Novel PKC Lipid Mix: • 1. Add 10 mgs Phosphatidyl Serine (Avanti Polar Lipids Part #8400032C or 840039C) and 1 mg DAG (Avanti Polar Lipids Part #800811C) to a glass tube. • 2. Remove the chloroform from lipid mixture by evaporating to a clear, thin film under a stream of nitrogen. Continuous rotation of the tube, at an angle to ensure maximum surface area of the lipid solution, will promote the thinnest film. • 3. Add 5 mLs resuspension buffer, 20 mM HEPES, 0.3% CHAPS, pH 7.4, to the dried lipid mix • 4. Heat gently to 50-60° C. for 1-2 minutes and vortex in short intervals until the lipids are dissolved to a clear or slightly hazy solution. The lipids are typically in solution after 2-3 heat/vortex cycles. • 5. Cool to room temperature, aliquot into single use volumes and store at −20° C. Assay Protocol Bar-coded Corning, low volume NBS, black 384-well plate (Corning Cat. #4514) • 1. 100 nL—100× Test Compound in 100% DMSO • 2. 2.4 μL—Kinase buffer • 3. 5 μL—2× Peptide/Kinase Mixture • 4. 2.5 μL—4×ATP Solution • 5. 30-second plate shake • 6. 60-minute Kinase Reaction incubation at room temperature • 7. 5 μL—Development Reagent Solution • 8. 30-second plate shake • 9. 60-minute Development Reaction incubation at room temperature • 10. Read on fluorescence plate reader and analyze the data.

The term inhibition denotes the share of the control response that was lost under treatment.

T1 sequence (P23458 whole entry): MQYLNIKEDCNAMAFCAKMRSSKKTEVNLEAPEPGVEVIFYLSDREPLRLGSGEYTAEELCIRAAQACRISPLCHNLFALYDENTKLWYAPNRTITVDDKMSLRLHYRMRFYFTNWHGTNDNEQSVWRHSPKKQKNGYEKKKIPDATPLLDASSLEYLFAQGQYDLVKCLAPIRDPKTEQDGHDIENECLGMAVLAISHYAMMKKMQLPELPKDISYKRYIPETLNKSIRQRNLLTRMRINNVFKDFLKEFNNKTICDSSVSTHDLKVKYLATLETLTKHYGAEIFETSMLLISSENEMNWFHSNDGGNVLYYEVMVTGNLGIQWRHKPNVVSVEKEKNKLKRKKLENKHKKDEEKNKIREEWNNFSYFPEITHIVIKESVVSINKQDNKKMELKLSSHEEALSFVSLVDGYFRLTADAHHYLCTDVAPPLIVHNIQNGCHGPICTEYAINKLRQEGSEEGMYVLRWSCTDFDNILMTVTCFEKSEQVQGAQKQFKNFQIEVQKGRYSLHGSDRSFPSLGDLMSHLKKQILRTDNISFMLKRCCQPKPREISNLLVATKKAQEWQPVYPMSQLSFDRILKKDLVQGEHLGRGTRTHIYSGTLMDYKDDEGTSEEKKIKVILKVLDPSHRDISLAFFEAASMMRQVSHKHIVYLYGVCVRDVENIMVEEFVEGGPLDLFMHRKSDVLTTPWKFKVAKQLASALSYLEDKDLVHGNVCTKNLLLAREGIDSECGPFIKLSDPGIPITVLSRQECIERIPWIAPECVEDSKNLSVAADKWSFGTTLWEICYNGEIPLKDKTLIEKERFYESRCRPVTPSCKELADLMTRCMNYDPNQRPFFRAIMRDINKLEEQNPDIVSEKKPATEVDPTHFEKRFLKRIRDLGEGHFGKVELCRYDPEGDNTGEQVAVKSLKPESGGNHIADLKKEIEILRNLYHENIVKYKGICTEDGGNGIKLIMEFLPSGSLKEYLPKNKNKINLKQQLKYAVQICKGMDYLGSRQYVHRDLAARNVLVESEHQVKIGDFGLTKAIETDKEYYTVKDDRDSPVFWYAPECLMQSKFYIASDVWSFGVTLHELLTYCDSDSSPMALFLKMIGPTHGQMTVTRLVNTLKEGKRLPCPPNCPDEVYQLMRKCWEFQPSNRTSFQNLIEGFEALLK

With `CC(C)CS(=O)(=O)NC1CC2(C1)CC(N(C)c1ncnc3[nH]ccc13)C2` (centres unmarked) [Compound 19, 2-methyl-N-[2-[methyl(7H-pyrrolo[2,3-d]pyrimidin-4-yl)amino]spiro[3.3]heptan-6-yl]propane-1-sulfonamide], the inhibition at 0.01 µM was found to be 27%, the inhibition at 0.1 µM stood at 73% and the “% Inhibition 1000 nm” value is 94%.
Taken in the same sequence, the figures for `CN(c1ncnc2[nH]ccc12)C1CC2(CC(NS(=O)(=O)C3CCCC3)C2)C1` (centres unmarked) [Compound 20, N-[2-[methyl(7H-pyrrolo[2,3-d]pyrimidin-4-yl)amino]spiro[3.3]heptan-6-yl]cyclopentanesulfonamide] were 33%, 82% and 97%.
Turning to `CN(c1ncnc2[nH]ccc12)C1CC2(CC(NS(=O)(=O)CCC(F)(F)F)C2)C1` (centres unmarked) [Compound 21, 3,3,3-trifluoro-N-[2-[methyl(7H-pyrrolo[2,3-d]pyrimidin-4-yl)amino]spiro[3.3]heptan-6-yl]propane-1-sulfonamide], the inhibition at 0.01 µM came to 46%, the inhibition at 0.1 µM was found to be 85% and the “% Inhibition 1000 nm” value was determined as 98%.
Turning to `CN(c1ncnc2[nH]ccc12)C1CC2(CC(CNS(C)(=O)=O)C2)C1` (centres unmarked) [Compound 22, N-((6-(methyl(7H-pyrrolo[2,3-d]pyrimidin-4-yl)amino)spiro[3.3]heptan-2-yl)methyl)methanesulfonamide], the inhibition at 0.01 µM turned out to be 76% and the inhibition at 0.1 µM worked out at 96%.
Take `CCS(=O)(=O)NCC1CC2(C1)CC(N(C)c1ncnc3[nH]ccc13)C2` (centres unmarked) [Compound 23, N-((6-(methyl(7H-pyrrolo[2,3-d]pyrimidin-4-yl)amino)spiro[3.3]heptan-2-yl)methyl)ethanesulfonamide]: the inhibition at 0.01 µM was 66%, the inhibition at 0.1 µM stood at 94% and the “% Inhibition 1000 nm” value is 97%.
On to `CNS(=O)(=O)C1CC2(CC(N(C)c3ncnc4[nH]cnc34)C2)C1` (centres unmarked) [Compound 24, N-methyl-6-[methyl(9H-purin-6-yl)amino]spiro[3.3]heptane-2-sulfonamide], for which the inhibition at 0.01 µM came out at 4%, the inhibition at 0.1 µM was found to be 21% and the “% Inhibition 1000 nm” value was found to be 72%.
The matching figures for `CNS(=O)(=O)C1CC2(CC(N(C)c3ncnc4[nH]ncc34)C2)C1` (centres unmarked) [Compound 25, N-methyl-6-[methyl(1H-pyrazolo[3,4-d]pyrimidin-4-yl)amino]spiro[3.3]heptane-2-sulfonamide]: 2%, 4% and 19%.
Taken in the same sequence, the figures for `CN(c1ncnc2[nH]ccc12)C1CC2(C1)CC(S(N)(=O)=O)C2` (centres unmarked) [Compound 28, 6-[methyl(7H-pyrrolo[2,3-d]pyrimidin-4-yl)amino]spiro[3.3]heptane-2-sulfonamide] were 13%, 60% and 94%.
Taken in the same sequence, the figures for `CN(c1ncnc2[nH]ccc12)C1CC2(C1)CC(S(=O)(=O)N(C)C)C2` (centres unmarked) [Compound 29, N,N-dimethyl-6-[methyl(7H-pyrrolo[2,3-d]pyrimidin-4-yl)amino]spiro[3.3]heptane-2-sulfonamide] were 55%, 92% and 98%.
On to `CN(c1ncnc2[nH]ccc12)C1CC2(C1)CC(S(=O)(=O)N1CCCC1)C2` (centres unmarked) [Compound 30, N-methyl-N-(2-pyrrolidin-1-ylsulfonylspiro[3.3]heptan-6-yl)-7H-pyrrolo[2,3-d]pyrimidin-4-amine], for which the inhibition at 0.01 µM turned out to be 43%, the inhibition at 0.1 µM turned out to be 89% and the “% Inhibition 1000 nm” value was determined as 99%.
